Data: patent publication US10172868B2, “Substituted quinazolines for inhibiting kinase activity” (NeuPharma, Inc., priority 2013, dated 2019)

Tests used:
[1] = biological target: EGFR (ErbB1) T790M L858R (Homo sapiens (Human), UniProt P00533, L858R/T790M); experiment: Z'-LYTE kinase inhibition assay, EGFR L858R/T790M; format: biochemical; settings: for inhibition at 1 µM: read-out: % inhibition against EGFR L858R/T790M (Compound at 1 μM); for IC50: read-out: IC50 against EGFR L858R/T790M; for inhibition at 0.0137 µM: read-out: % inhibition against EGFR L858R/T790M (Compound at 0.0137 μM)
Procedure, shortened: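 IC50 taken from 10-point, 3-fold serial dilutions tested in 1% DMSO. The mutant kinase and peptide were prepared in HEPES pH 6.5 buffer with BRIJ-35, MgCl2, EGTA and NaN3, then reacted with ATP for 1 h at room temperature. Development reagent was added for a further hour before the fluorescence readout.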

[2] = system: HCC827 cells; experiment: cells; settings: Homo sapiens, HCC827, 72 h, read-out: IC50 in HCC827 cells
Protocol: (§1) Taxol (as a positive control. Sigma) and compounds were dissolved in DMSO (Sigma), and the final concentration of DMSO in the medium was 1%. Tumor cells were plated in 96-well plates at densities of about 4000 cells/well of a 96-well plate and allowed to adhere/grow for 24 h. They were then treated with various concentrations of drug for 72 h, 3-(4,5-Dimethylthiazol-2-yl)-2,5-diphenyltetrazolium bromide (MTT, Sigma) was used to determine the number of viable cells at the time of compound addition and the number of cells remaining after 72 h compound exposure. The number of cells remaining after 72 h was compared to the number of viable cells at the time of compound addition by measuring the absorbance at 570 nm, allowing for the calculation of growth inhibition.
(§2) All concentrations of compounds were tested in triplicate and controls were averaged over 4 wells. IC50 was calculated by plotting the concentration of compound vs the percentage of inhibition in treated wells using GraphPad Prism 5.
(§3) The scale utilized in Tables 5 is as follows: +++ less than 100 nM; ++ between 100 nM and 500 nM; and + greater than 500 nM.

[3] = system: H1975 cells; experiment: Inhibition of cancer cell growth, MTT assay, H1975; settings: Homo sapiens, NCI-H1975, 72 h, read-out: IC50 in H1975 cells
[4] = biological target: EGFR (ErbB1) (Homo sapiens (Human), UniProt P00533); experiment: Z'-LYTE kinase inhibition assay, EGFR; format: biochemical; settings: for inhibition at 0.041 µM: read-out: % inhibition against EGFR (Compound at 0.041 μM)
Procedure, shortened: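 IC50 values derived from 10-point, 3-fold compound dilution series (1% DMSO final) using Z'-LYTE fluorescence readout after 60-min development. Reaction: EGFR (1.1-5.25 ng) with 2 μM peptide, 60 min at room temperature in HEPES pH 7.5 buffer containing MgCl2, MnCl2, EGTA, DTT and BRIJ-35.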

[5] = system: A431 cells; experiment: cells; settings: Homo sapiens, A-431, 72 h, read-out: IC50 in A431 cells
Protocol: as §1, §2, §3

[6] = biological target: BTK (Homo sapiens (Human), UniProt Q06187); experiment: Z'-LYTE kinase inhibition assay, BTK; format: biochemical; settings: for inhibition at 0.041 µM: compound at 0.041 μM, read-out: % inhibition against BTK
Protocol: Inhibitory activities of compounds against BTK, EGFR and EGFR mutants (EGFR L858R, EGFR T790M, EGFR L858R/T790M), FGFR1, FGFR2, JAK2, JAK3 and KDR were measured by Invitrogen using Z'-LYTE® Method as briefly described in the following.
Test Compounds are screened in 1% DMSO (final) in the well. For 10 point titrations, 3-fold serial dilutions are conducted from the starting concentration. All ATP Solutions are diluted to a 4× working concentration in Kinase Buffer (50 mM HEPES pH 7.5, 0.01% BRIJ-35, 10 mM MgCl2, 1 mM EGTA). Peptide/Kinase Mixtures are diluted to a 2× working concentration in the appropriate Kinase Buffers as described below.
(v) Peptide/Kinase Mixtures for Measurement of BTK:
The 2×BTK/Tyr 01 mixture is prepared in 50 mM HEPES pH 7.5. 0.01% BRIJ-35, 10 mM MgCl2, 1 mM EGTA.
The mixture is then incubated for another 60-minute at room temperature for development reaction. Finally fluorescence is read by plate reader.
To determine IC50 of a compound against EGFR, EGFR mutant and other kinases, a series of concentrations of the compound were tested for the inhibition. […] The scale utilized in Table 4 is as follows: +++ less than 100 nM, ++ 100-500 nM and + greater than 500 nM.

[7] = system: H3255 cells; experiment: Inhibition of cancer cell growth, MTT assay, H3255; settings: Homo sapiens, NCI-H3255, 72 h, read-out: IC50 in H3255 cells

Sequence of BTK (Q06187 whole entry): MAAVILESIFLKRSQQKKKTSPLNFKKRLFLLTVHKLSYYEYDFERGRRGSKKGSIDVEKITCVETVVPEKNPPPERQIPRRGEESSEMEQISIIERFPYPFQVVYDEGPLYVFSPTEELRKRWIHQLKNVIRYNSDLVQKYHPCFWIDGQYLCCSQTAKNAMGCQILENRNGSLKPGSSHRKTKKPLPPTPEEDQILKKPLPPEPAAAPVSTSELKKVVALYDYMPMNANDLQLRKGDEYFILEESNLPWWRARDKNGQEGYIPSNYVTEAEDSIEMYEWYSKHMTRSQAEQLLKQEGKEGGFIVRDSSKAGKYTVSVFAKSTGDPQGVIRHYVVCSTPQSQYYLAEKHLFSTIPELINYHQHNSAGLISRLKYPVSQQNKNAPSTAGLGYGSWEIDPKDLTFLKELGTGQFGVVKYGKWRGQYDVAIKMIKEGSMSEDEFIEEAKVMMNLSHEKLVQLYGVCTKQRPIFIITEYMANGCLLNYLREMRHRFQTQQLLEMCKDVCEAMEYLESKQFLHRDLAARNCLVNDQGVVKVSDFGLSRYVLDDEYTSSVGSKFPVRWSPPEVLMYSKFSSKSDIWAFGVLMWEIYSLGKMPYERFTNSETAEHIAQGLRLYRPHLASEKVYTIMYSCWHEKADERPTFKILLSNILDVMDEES
Sequence of EGFR (ErbB1) T790M L858R (P00533 25-1210 T790M/L858R): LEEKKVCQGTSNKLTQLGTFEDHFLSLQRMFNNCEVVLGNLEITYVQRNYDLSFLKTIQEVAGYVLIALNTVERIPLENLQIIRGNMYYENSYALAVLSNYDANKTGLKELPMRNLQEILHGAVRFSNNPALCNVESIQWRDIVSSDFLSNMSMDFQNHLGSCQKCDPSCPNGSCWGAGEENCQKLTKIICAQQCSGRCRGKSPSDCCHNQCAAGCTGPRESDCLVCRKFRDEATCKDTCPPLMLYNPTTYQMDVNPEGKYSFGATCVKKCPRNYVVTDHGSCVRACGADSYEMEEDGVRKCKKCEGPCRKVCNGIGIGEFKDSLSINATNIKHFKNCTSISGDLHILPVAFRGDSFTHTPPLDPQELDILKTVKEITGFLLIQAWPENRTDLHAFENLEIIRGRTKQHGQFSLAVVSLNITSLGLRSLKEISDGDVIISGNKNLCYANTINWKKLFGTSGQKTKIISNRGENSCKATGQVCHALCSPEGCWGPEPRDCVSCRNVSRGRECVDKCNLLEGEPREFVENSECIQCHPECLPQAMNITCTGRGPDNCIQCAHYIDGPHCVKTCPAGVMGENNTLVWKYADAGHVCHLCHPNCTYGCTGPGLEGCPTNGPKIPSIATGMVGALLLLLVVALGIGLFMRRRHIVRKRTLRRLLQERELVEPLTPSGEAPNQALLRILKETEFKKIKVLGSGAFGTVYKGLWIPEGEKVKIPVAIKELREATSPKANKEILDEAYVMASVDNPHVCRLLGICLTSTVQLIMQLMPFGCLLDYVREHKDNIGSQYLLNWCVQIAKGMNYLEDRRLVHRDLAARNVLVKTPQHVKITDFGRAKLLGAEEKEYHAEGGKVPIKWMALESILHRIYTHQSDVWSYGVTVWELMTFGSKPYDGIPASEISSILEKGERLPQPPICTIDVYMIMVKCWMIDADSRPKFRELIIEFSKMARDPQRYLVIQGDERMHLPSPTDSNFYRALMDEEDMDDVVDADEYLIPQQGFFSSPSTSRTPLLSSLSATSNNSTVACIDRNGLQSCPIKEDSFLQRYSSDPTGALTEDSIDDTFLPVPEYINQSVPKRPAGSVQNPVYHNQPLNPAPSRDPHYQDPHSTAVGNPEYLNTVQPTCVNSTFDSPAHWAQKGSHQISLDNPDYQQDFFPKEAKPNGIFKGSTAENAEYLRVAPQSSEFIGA
Sequence of EGFR (ErbB1) (P00533 25-1210): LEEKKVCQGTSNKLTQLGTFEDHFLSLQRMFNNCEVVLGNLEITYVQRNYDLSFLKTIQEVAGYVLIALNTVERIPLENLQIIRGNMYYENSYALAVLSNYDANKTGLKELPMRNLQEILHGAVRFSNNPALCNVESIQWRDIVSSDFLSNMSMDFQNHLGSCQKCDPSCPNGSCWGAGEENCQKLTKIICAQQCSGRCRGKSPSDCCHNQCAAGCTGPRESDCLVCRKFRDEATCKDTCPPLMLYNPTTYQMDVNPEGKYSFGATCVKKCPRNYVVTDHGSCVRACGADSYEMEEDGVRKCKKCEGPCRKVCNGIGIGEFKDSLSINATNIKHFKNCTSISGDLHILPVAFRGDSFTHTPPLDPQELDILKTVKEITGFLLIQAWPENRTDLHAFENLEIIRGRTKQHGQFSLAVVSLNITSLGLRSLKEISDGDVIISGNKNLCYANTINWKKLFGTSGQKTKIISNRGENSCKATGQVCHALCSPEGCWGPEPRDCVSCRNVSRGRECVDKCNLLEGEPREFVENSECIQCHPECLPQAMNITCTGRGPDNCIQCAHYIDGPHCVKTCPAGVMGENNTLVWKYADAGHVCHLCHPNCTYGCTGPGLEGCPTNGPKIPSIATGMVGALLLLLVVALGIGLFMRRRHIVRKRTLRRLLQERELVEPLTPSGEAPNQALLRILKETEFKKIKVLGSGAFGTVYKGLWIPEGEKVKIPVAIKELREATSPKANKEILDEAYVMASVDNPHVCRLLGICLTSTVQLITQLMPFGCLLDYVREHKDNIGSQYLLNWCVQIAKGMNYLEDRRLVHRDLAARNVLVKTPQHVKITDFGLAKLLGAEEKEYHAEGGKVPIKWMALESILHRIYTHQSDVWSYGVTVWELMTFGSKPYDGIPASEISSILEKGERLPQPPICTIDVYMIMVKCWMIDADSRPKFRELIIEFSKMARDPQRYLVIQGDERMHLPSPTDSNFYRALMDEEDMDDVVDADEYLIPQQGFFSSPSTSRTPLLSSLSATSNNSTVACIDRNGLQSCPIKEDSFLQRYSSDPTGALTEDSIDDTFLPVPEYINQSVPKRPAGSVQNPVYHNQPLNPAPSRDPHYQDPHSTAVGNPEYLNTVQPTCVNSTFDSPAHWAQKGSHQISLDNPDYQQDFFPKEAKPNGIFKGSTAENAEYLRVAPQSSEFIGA

Structure (SMILES) | inhibition at 1 µM [1] [%] | IC50 [2] [nM] | IC50 [3] [nM] | inhibition at 1 µM ([4]; read-out: % inhibition against EGFR (Compound at 1 μM)) [%] | inhibition at 0.041 µM [4] [%] | IC50 [5] [nM] | IC50 [1] [nM] | IC50 ([6]; read-out: IC50 against BTK) [nM] | inhibition at 0.0137 µM [1] [%] | inhibition at 0.041 µM [6] [%] | IC50 [7] [nM]
Fc1ccc(Cl)cc1-c1cccc2cnc(Nc3ccc(N4CCNCC4)cc3)nc12 [Example C024, 8-(5-chloro-2-fluorophenyl)-N-(4-(piperazin-1-yl)phenyl)quinazolin-2-amine] | > 50 | > 500 | > 500 |  |  |  |  |  |  |  | 
Fc1ccc(OCCN2CCOCC2)cc1-c1cccc2cnc(Nc3ccc(N4CCNCC4)cc3)nc12 [Example C028, 8-(2-fluoro-5-(2-morpholinoethoxy)phenyl)-N-(4-(piperazin-1-yl)phenyl)quinazolin-2-amine] | > 50 | > 500 | > 500 |  |  |  |  |  |  |  | 
c1ccc(-c2cccc3cnc(Nc4ccc(N5CCNCC5)cc4)nc23)cc1 [Example C030, 8-phenyl-N-(4-(piperazin-1-yl)phenyl)quinazolin-2-amine] | > 50 | 100 to 500 | 100 to 500 | > 50 |  |  |  |  |  |  | 
C=CC(=O)Nc1cccc(-c2c(CO)ccc3cnc(Nc4ccc(N5CCN(C)CC5)cc4)nc23)c1 [Example C037, N-(3-(7-(hydroxymethyl)-2-((4-(4-methylpiperazin-1-yl)phenyl)amino)quinazolin-8-yl)phenyl)acrylamide] |  | < 100 | < 100 |  | > 50 | < 100 |  |  |  |  | 
C=CC(=O)Nc1cccc(-c2cccc3cnc(Nc4ccc(N5CCN(CC)CC5)cc4)nc23)c1F [Example C038, N-(3-(2-((4-(4-ethylpiperazin-1-yl)phenyl)amino)quinazolin-8-yl)-2-fluorophenyl)acrylamide] |  | < 100 | < 100 |  |  |  |  |  |  |  | 
C=CC(=O)Nc1cccc(-c2cccc3cnc(Nc4ccc(OCCO)cc4)nc23)c1 [Example C108, N-(3-(2-((4-(2-hydroxyethoxy)phenyl)amino)quinazolin-8-yl)phenyl)acrylamide] |  |  | < 100 |  |  | > 500 | < 100 | < 100 |  |  | 
C=CC(=O)Nc1cccc(-c2cccc3cnc(Nc4ccc(OCCN5CCC5)cc4)nc23)c1 [Example C109, N-(3-(2-((4-(2-(azetidin-1-yl)ethoxy)phenyl)amino)quinazolin-8-yl)phenyl)acrylamide] |  |  | < 100 |  | < 50 | 100 to 500 | < 100 |  | > 50 | > 50 | 
C=CC(=O)Nc1cccc(-c2cccc3cnc(Nc4ccc(OCCN(C)C)cc4)nc23)c1 [Example C110, N-(3-(2-((4-(2-(dimethylamino)ethoxy)phenyl)amino)quinazolin-8-yl)phenyl)acrylamide] |  |  | < 100 |  | < 50 | < 100 | < 100 |  | > 50 | > 50 | 
C=CC(=O)Nc1cccc(-c2cccc3cnc(Nc4ccc(NC5CCN(C(C)=O)CC5)cc4)nc23)c1 [Example C120, N-(3-(2-((4-((1-acetylpiperidin-4-yl)amino)phenyl)amino)quinazolin-8-yl)phenyl)acrylamide] |  |  | < 100 |  | < 50 |  |  |  | < 50 | > 50 | 
C=CC(=O)Nc1cccc(-c2cccc3cnc(Nc4ccc(O[C@H]5CCN(C)C5)cc4)nc23)c1 [Example C121, (S)-N-(3-(2-((4-((1-methylpyrrolidin-3-yl)oxy)phenyl)amino)quinazolin-8-yl)phenyl)acrylamide] |  |  | < 100 |  | < 50 | 100 to 500 | < 100 |  | > 50 | > 50 | 
C=CC(=O)Nc1cccc(-c2cccc3cnc(Nc4ccc(OC5CN(C(C)=O)C5)cc4)nc23)c1 [Example C122, N-(3-(2-((4-((1-acetylazetidin-3-yl)oxy)phenyl)amino)quinazolin-8-yl)phenyl)acrylamide] |  |  | < 100 |  | < 50 |  |  |  | < 50 | > 50 | 
C=CC(=O)Nc1cccc(-c2cccc3cnc(Nc4ccc(O[C@@H]5CCN(C)C5)cc4)nc23)c1 [Example C123, (R)-N-(3-(2-((4-((1-methylpyrrolidin-3-yl)oxy)phenyl)amino)quinazolin-8-yl)phenyl)acrylamide] |  |  | < 100 |  | > 50 | < 100 | < 100 |  | > 50 | > 50 | 
C=CC(=O)Nc1cccc(-c2cccc3cnc(Nc4ccc(NC5CN(C(C)=O)C5)cc4)nc23)c1 [Example C124, N-(3-(2-((4-((1-acetylazetidin-3-yl)amino)phenyl)amino)quinazolin-8-yl)phenyl)acrylamide] |  |  | < 100 |  | < 50 |  |  |  | < 50 | > 50 | 
C=CC(=O)Nc1cccc(-c2cccc3cnc(Nc4ccc(OC5CCN(C(C)=O)CC5)cc4)nc23)c1 [Example C125, N-(3-(2-((4-((1-acetylpiperidin-4-yl)oxy)phenyl)amino)quinazolin-8-yl)phenyl)acrylamide] |  |  | < 100 |  | < 50 |  |  |  | < 50 | > 50 | 
C=CC(=O)Nc1cccc(-c2cccc3cnc(Nc4ccc(OC5CCN(C)CC5)cc4)nc23)c1 [Example C126, N-(3-(2-((4-((1-methylpiperidin-4-yl)oxy)phenyl)amino)quinazolin-8-yl)phenyl)acrylamide] |  |  | < 100 |  | > 50 | < 100 | < 100 |  | > 50 | > 50 | 
C=CC(=O)Nc1cccc(-c2cccc3cnc(Nc4ccc(N[C@H]5CCN(C)C5)cc4)nc23)c1 [Example C127, (S)-N-(3-(2-((4-((1-methylpyrrolidin-3-yl)amino)phenyl)amino)quinazolin-8-yl)phenyl)acrylamide] |  |  | < 100 |  | > 50 | < 100 | < 100 |  | > 50 |  | 100 to 500
C=CC(=O)Nc1cccc(-c2cccc3cnc(Nc4ccc(OC5CCN(CCO)CC5)cc4)nc23)c1 [Example C137, N-(3-(2-((4-((1-(2-hydroxyethyl)piperidin-4-yl)oxy)phenyl)amino)quinazolin-8-yl)phenyl)acrylamide] |  |  | < 100 |  | > 50 | 100 to 500 | < 100 |  | > 50 |  | > 500
C=CC(=O)Nc1cccc(-c2cccc3cnc(Nc4ccc(NC5CCN(CCO)CC5)cc4)nc23)c1 [Example C139, N-(3-(2-((4-((1-(2-hydroxyethyl)piperidin-4-yl)amino)phenyl)amino)quinazolin-8-yl)phenyl)acrylamide] |  |  | < 100 |  | > 50 | < 100 | < 100 |  | > 50 |  | 100 to 500
C=CC(=O)Nc1cccc(-c2cccc3cnc(Nc4cc(F)c(N5CCN(CCOC)CC5)cc4F)nc23)c1 [Example C161, N-(3-(2-((2,5-difluoro-4-(4-(2-methoxyethyl)piperazin-1-yl)phenyl)amino)quinazolin-8-yl)phenyl)acrylamide] |  |  | 100 to 500 |  |  |  |  |  | < 50 |  | > 500
C=CC(=O)Nc1cccc(-c2cccc3cnc(Nc4cc(F)c(N5CCN(CCO)CC5)cc4F)nc23)c1 [Example C162, N-(3-(2-((2,5-difluoro-4-(4-(2-hydroxyethyl)piperazin-1-yl)phenyl)amino)quinazolin-8-yl)phenyl)acrylamide] |  |  | 100 to 500 |  |  |  |  |  |  |  | > 500
